Values of other authors as cited in patent US20220265565A1, “NANOTECHNOLOGY-BASED DELIVERY SYSTEM OF BERGAMOT ESSENTIAL OIL, METHOD OF PREPARATION OF THE SYSTEM AND USES THEREOF” (priority 2019, published 2022).

What was measured:
[1] = about 0.2% in the nonvolatile residue of BEO
[2] = test system: nociceptive response in the capsaicin test; details: for nociceptive response in the capsaicin test: intraplantar (i.pl.) administration
[3] = test system: PSNL-induced neuropathic pain symptoms in mice

Row | Compound | phototoxicity [1] | nociceptive response in the capsaicin test [2] | morphine-induced antinociception with combined injection ([2]; morphine i.p. or i.t. combined with i.pl. injection of the substance) | neuropathic pain symptoms / mechanical allodynia ([3]; neuropathic pain models, PSNL mice, i.pl. injection) | morphine-induced anti-allodynic effect ([3]; under neuropathic pain)
1 | COc1c2ccoc2cc2oc(=O)ccc12 [bergapten, 5-methoxypsoralen] | responsible for the phototoxicity of BEO | – | – | – | –
2 | C=CC(C)(O)CCC=C(C)C (stereo not drawn) [linalool] | – | reduced the nociceptive response | markedly enhanced | reduced partial sciatic nerve ligation (PSNL)-induced neuropathic pain symptoms | modulate morphine-induced anti-allodynic effect
3 | C=CC(C)(CCC=C(C)C)OC(C)=O (stereo not drawn) [linalyl acetate] | – | reduced the nociceptive response | – | – | –
